Values after ≈ are worked out from the molar mass of the structure shown. Values joined by “and” are separate entries in the source; they are usually repeats but may differ in a detail not shown here. Identical values can stand only once.
How the values were obtained:
Rhabditis sp. = test: Anthelmintic activity assay on nematode culture; format: cell-based; details: 24 h exposure
Method: All compounds in the anthelmintic activity study were prepared in the form of a homogeneous suspension. The anthelmintic activity was tested according to the procedure developed by Bogucka-Kock and Kołodziej. The tested compounds were added to the culture of Rhabditis sp. at experimentally determined concentrations. […] LC50 values (lethal concentration) were determined for two active substances. It was defined as the amount of the substance causing the death of 50% of nematodes.

[1] = test system: SW 620 human metastatic colon cancer cells; test: MTT cytotoxicity assay; format: cell-based; details: for IC50: Homo sapiens, SW 620, MTT, 72 h; for SI (Selectivity Index): IC50 for normal cell line (V79)/IC50 cancer cell line (SW 620)
Method: Both lines were obtained from American Type Culture Collection (ATCC, Rockville, MD, USA). The culture used to grow the SW 620 cells was prepared in MEM (ThermoSci, Waltham, MA, USA). The V79 cells were cultured in RPMI (Biowest SAS, Nuaillé, France) with the addition of 20 mM HEPES (Biowest, Nuaillé, France), 10% fetal bovine serum (FBS, Sigma-Aldrich, St. Louis, MO, USA), 100 µg/mL of streptomycin, and 100 U/mL of penicillin (Gibco, Grand Island, NY, USA). […] The MTT assay was used to establish the cytotoxic activity of the studied compounds. […] The process starts with the preparation of 96-well plates by placing cells at a density of 1 × 10^4 per well and incubating them for 24 h to adhere. […] Next, cells were incubated for 72 h at 37 °C with a 5% CO2. Then, a solution of MTT (0.5 mg/mL) was added to each well and plates were incubated for 4 h more in the same conditions. To dissolve precipitated formazan crystals, a mixture of DMSO and isopropanol (in a 1:1 ratio, v/v) was used. […] Cell viability was determined as the percentage of MTT reduction in the treated cells compared to the control group (unexposed cells). The relative MTT level, represented as a percentage, was calculated using the formula [A]/[B] × 100, where [A] stands for the absorbance of the treated cell sample and [B] for the absorbance of unexposed to studied compounds sample (control group).

[2] = test system: lipid oxidation stimulated by iron (II) ions in rat brain homogenate; test: Antioxidant activity: MDA from iron(II)-stimulated lipid oxidation in brain homogenate; format: biochemical; details: 10 μM compound; for MDA: 0.1% FeCl2 and 1 mM ascorbic acid, 1 h 37 °C; for Antioxidative Potential Value: reduction of MDA vs control sample
Method: The antioxidant potential of the newly synthesized derivatives was assessed based on the analysis of the malondialdehyde (MDA) concentration formed as a product of lipid oxidation stimulated by iron (II) ions.
The antioxidant activity of the tested compounds was measured in the brain homogenate of intact rats bred at the Central Laboratory of Experimental Animals of the Medical University of Warsaw. Brains were collected according to procedure no. 3R. A 10% (m/v) rat brain solution was obtained by homogenizing freshly prepared brain washed with cold 0.9% NaCl in cold 10 mM TRIS-HCl buffer, with pH = 7.5. The homogenate was centrifuged at 4 °C (2000 rpm) to obtain supernatant 1 [54, 60]. Sample preparation was as follows: 100 μM stock solutions of test compounds in DMSO were added to […] of supernatant 1 to a final concentration of 10 μM. The reference sample contained brain homogenate supernatant and DMSO.
Freshly prepared solutions of 0.1% FeCl2 (0.2 mL) and 1 mM ascorbic acid (0.4 mL) were added to all samples to initiate the oxidation reaction. Samples were incubated for 1 h at 37 °C. Then, 8.1% sodium dodecyl sulfate (SDS) solution was added to inhibit the oxidation reaction. Acetate buffer (pH = 3.4) and 0.8% thiobarbituric acid (TBA) solution (pH = 6) were added to each sample to determine the concentration of malondialdehyde (MDA). The samples were incubated for 1 h at 100 °C, then cooled on ice and centrifuged (10 min, 4000 rpm). The absorbance was measured at a wavelength of 532 nm against a blank sample (acetate buffer with TBA solution).
Calculation of malondialdehyde (MDA) concentration was performed as follows: MDA concetration=∆ A532 nm×1.56×10^−6 [nmol MDA/h/g tissue]

SMILES | melting point [°C] | LC50 (Rhabditis sp.) [µg/mL] | IC50 [1] [µM] | SI (Selectivity Index) [1] | MDA [2] [mM × 10^−3] | Antioxidative Potential Value [2]
O=C(NNC(=S)Nc1cccc(Cl)c1)c1cccc(C(F)(F)F)c1 [Compound 3a, 4-(3-Chlorophenyl)-1-(3-trifluoromethylbenzoyl)thiosemicarbazide] | – | 14800 (≈ 39.5 mM) | 69 ± 12.6 | 0.59 | 1.395 ± 0.232 | 48.3%
COc1cccc(NC(=S)NNC(=O)c2cccc(C(F)(F)F)c2)c1 [Compound 3b, 1-(3-Trifluoromethylbenzoyl)-4-(3-methoxyphenyl)thiosemicarbazide] | 181.3 | – | > 100 | 1 | 1.703 ± 0.177 | 36.9%
FC(F)(F)c1cccc(-c2n[nH]c(=S)n2-c2cccc(Cl)c2)c1 [Compound 4, 4-(3-Chlorophenyl)-5-(3-trifluoromethylphenyl)-2,4-dihydro-3H-1,2,4-triazole-3-thione] | – | 370 (≈ 1.04 mM) | > 100 | 1 | 2.022 ± 0.121 | 25.1%

Further lines, with some results ahead:

melting point [°C] | SMILES | LC50 (Rhabditis sp.) [µg/mL] | IC50 [1] [µM] | SI (Selectivity Index) [1] | MDA [2] [mM × 10^−3] | Antioxidative Potential Value [2]
161.6 | CCCCNC(=S)NNC(=O)c1cccc(C(F)(F)F)c1 [Compound 3c, 4-Butyl-1-(3-trifluoromethylbenzoyl)thiosemicarbazide] | – | > 100 | 1 | 1.773 ± 0.077 | 34.3%
230.7 | Cc1cccc(NC(=S)NNC(=O)c2cccc(C(F)(F)F)c2)c1 [Compound 3d, 1-(3-Trifluoromethylbenzoyl)-4-(3-methylphenyl)thiosemicarbazide] | – | > 100 | 0.69 | 1.320 ± 0.143 | 50.1% and 51.1%
174.4 | O=C(NNC(=S)Nc1cccc(F)c1)c1cccc(C(F)(F)F)c1 [Compound 3e, 1-(3-Trifluoromethylbenzoyl)-4-(3-fluorophenyl)thiosemicarbazide] | – | 89.9 ± 14.6 | – | 1.274 ± 0.121 | 52.8%
176.4 | O=C(NNC(=S)Nc1ccccc1)c1cccc(C(F)(F)F)c1 [Compound 3f, 1-(3-Trifluoromethylbenzoyl)-4-(phenyl)thiosemicarbazide] | – | > 100 | 1 | 1.450 ± 0.006 | 46.3%
